In article PMC8510097 (Molecules, 2021):
Where two headings read alike, the source gives them in different places.

Assays:
SARS-CoV-2 3CLpro [1] = molecular target: T1, SARS-CoV-2 3CLpro (Severe acute respiratory syndrome coronavirus 2, UniProt P0DTD1); assay: SARS-CoV-2 3CLpro inhibition assay, continuous fluorescence with FRET substrate UIVT3; format: biochemical
[2] = system: SARS-CoV-2 strain JPN/TY/WK-521; assay: Antiviral assay, quantitative VeroE6 cell-based assay with RNA-qPCR
SARS-CoV-2 = assay: Antiviral CPE protection assay in VeroE6 cells in the presence of P-glycoprotein inhibitor CP-100356 (CellTiter-Glo); format: cell-based; settings: 2µM CP-100356, MOI 0.01, 72 hours
SARS-CoV 3CL protease = settings: Figure 1; read-out: IC50 (SARS-CoV 3C); cited from earlier work
SARS-CoV = settings: cited from earlier work
SARS-CoV-2^wk-521 = system: SARS-CoV-2^wk-521; parameters: method as in PMID 32820005, PMID 33510133; settings: VeroE6 cells; cited from earlier work
[3] = system: SARS-CoV-2 strain JPN/TY/WK-521; parameters: method as in PMID 32820005, PMID 33510133; settings: VeroE6 cells; read-out: antiviral EC50; cited from earlier work
SARS-CoV-2 3CLpro [4] = molecular target: T1, SARS-CoV-2 3CLpro; assay: Mass analysis of enzyme-inhibitor complex (LC-MS); settings: 2 μM protein, 20 μM compound, ten minutes
Procedure: The enzyme inhibitory activity (IC50 values) of synthetic active esters was assessed using a continuous fluorescence assay and the FRET-based substrate UIVT3 (HiLyteFluor488^TM-[…] -QXL520-NH2 (HPLC > 90%); Anaspec, Fremont, CA, USA) described by us previously. The antiviral activity (EC50 value) of compounds was evaluated using quantitative VeroE6 cell-based assay with RNA-qPCR as described by us recently. […] We presume that the mode of inhibition involves covalent bond formation with catalytic Cys145 as observed in our previous X-ray structural analysis of inhibitor-bound SARS-CoV-2 3CL protease as well as mass spectral analysis. The irreversible enzyme acylation of the NSAIDs-based inhibitor was examined by using […]. Authentic SARS-CoV-2 3CLpro was incubated with inhibitor 8a and then analyzed with untreated enzyme. As expected, we were able to see a signal for enzyme-bound compound 8a on the LC–MS spectrum that corresponds to acylation of 3CL protease with a mass shift of +212 Daltons.
Purified SARS-CoV-2 3CLpro was injected onto a Superdex™ 200 Increase 10/300 GL gel filtration column (GE Healthcare) equilibrated in 20 mM HEPES pH 7.5. […]
Positive ion spectra obtained were analyzed using Agilent MassHunter Qualitative Analysis Software B.06 and the deconvolution spectra were generated using Agilent MassHunter BioConfirm software B.06.

[5] = 10 min pre-incubation of enzyme with compound, read-out: SARS CoV-2 3CLpro IC50
[6] = Severe acute respiratory syndrome coronavirus 2, Vero C1008, 72 h, VeroE6 cells, RNA-qPCR, MOI 0.05, 72 h, read-out: SARS-CoV-2 EC50
[7] = values given in nM, read-out: SARS-CoV-2 3CLpro enzyme IC50
[8] = VeroE6 cells, RNA-qPCR, MOI 0.05, 72 h, read-out: SARS-CoV-2 EC50

| SMILES | IC50 (SARS-CoV-2 3CLpro [1]; [5]) [nM] | EC50 [2, 6] [µM] | further results |
| --- | --- | --- | --- |
| Cc1ccc(C(=O)Oc2cncc(Cl)c2)c(O)c1 [C00010] | 540 | > 100 |  |
| CC(=O)Nc1cc(C(=O)Oc2cncc(Cl)c2)ccc1F [Compound 19a, 5-chloropyridin-3-yl 3-acetamido-4-fluorobenzoate] |  |  | enzyme inhibitory activity (in words) (SARS-CoV-2 3CLpro [1]): low micromolar range |
| Cc1ccc(O)c(C(=O)Oc2ccc(C)cc2C(=O)Oc2ccc(C)cc2C(=O)Oc2cncc(Cl)c2)c1 [C00014] | 3730 | > 100 |  |
| COc1ccc2cc([C@@H](C)C(=O)Oc3cncc(Cl)c3)ccc2c1 [Compound 9a, 5-chloropyridin-3-yl (R)-2-(6-methoxynaphthalen-2-yl)propanoate] |  |  | fold improvement of enzyme IC50 over the (S)-naproxen ester 8a (SARS-CoV-2 3CLpro [1]): over 4 fold; IC50 (SARS-CoV-2 3CLpro [1]; [7]): 160 nM; antiviral activity in the presence of P-glycoprotein inhibitor CP-100356 (SARS-CoV-2): none of these compounds exhibited any significant antiviral activity |
| CCC(CC)COC(=O)[C@H](C)N[P@](=O)(OC[C@H]1O[C@@](C#N)(c2ccc3c(N)ncnn23)[C@H](O)[C@@H]1O)Oc1ccccc1 [Compound 5, remdesivir, reference compound] |  |  | EC50 ([2]; Severe acute respiratory syndrome coronavirus 2, Vero C1008, read-out: antiviral EC50 (table footnote a, reference compounds), VeroE6 cells): 2.4 µM |
| O=C(Oc1cncc(Cl)c1)c1cccs1 [Compound 2] |  |  | IC50 (SARS-CoV 3CL protease): 0.5 µM; antiviral activity (in words) (SARS-CoV): did not show antiviral activity |
| CC(=O)Nc1cc(C(=O)Oc2cncc(Cl)c2)ccc1F [C00019] | 1510 | > 100 |  |
| O=C(Oc1cncc(Cl)c1)c1cccc2[nH]ccc12 [Compound 3] |  |  | activity in immunocytochemistry assay (in words) (SARS-CoV-2^wk-521): blocked the infectivity and cytopathic effect |
| O=C(Oc1cncc(Cl)c1)c1cccc2c1CCN2 [Compound 4] |  |  | EC50 [3]: 15 µM; activity in immunocytochemistry assay (in words) (SARS-CoV-2^wk-521): potent enzyme inhibitory and antiviral activity |
| CC(=O)Nc1cccc(C(=O)Oc2cncc(Cl)c2)c1 [Compound 18a, 5-chloropyridin-3-yl 3-acetamidobenzoate] |  |  | enzyme inhibitory activity (in words) (SARS-CoV-2 3CLpro [1]): low micromolar range |
| O=C(Oc1cncc(Cl)c1)c1ccccc1O [C00006] |  | > 100 |  |
| O=C(On1nnc2ccccc21)c1ccc2[nH]ccc2c1 [Compound 1] |  |  | IC50 (SARS-CoV 3CL protease): 0.2 µM; antiviral activity (in words) (SARS-CoV): did not show antiviral activity |
| O=C(Oc1ccccc1C(=O)Oc1cncc(Cl)c1)c1ccccc1O [C00007] | 17100 |  | EC50 [2, 8]: 63.7 µM |
| COc1ccc2cc([C@H](C)C(=O)Oc3cncc(Cl)c3)ccc2c1 [C00002] | 670 | > 100 |  |
| O=C(Oc1ccccc1C(=O)Oc1cncc(Cl)c1)c1ccccc1O [Compound 12b, 5-chloropyridin-3-yl 2-((2-hydroxybenzoyl)oxy)benzoate] |  | 64 | fold reduction in enzyme activity versus monoester 12a (SARS-CoV-2 3CLpro [1]): 5 fold |
| Cc1cccc(O)c1C(=O)Oc1cncc(Cl)c1 [C00015] | 4260 | > 100 |  |
| COc1ccc2c(c1)c(CC(=O)Oc1cncc(Cl)c1)c(C)n2C(=O)c1ccc(Cl)cc1 [C00005] | 5320 |  | EC50 [2, 8]: 30.2 µM |
| COc1ccc2c(c1)c(CC(=O)Oc1cncc(Cl)c1)c(C)n2C(=O)c1ccc(Cl)cc1 [Compound 11a, 5-chloropyridin-3-yl 2-(1-(4-chlorobenzoyl)-5-methoxy-2-methyl-1H-indol-3-yl)acetate] |  |  | enzyme inhibitory activity (in words) (SARS-CoV-2 3CLpro [1]): significant reduction in enzyme activity; EC50 ([2]; Severe acute respiratory syndrome coronavirus 2, Vero C1008, 72 h, read-out: SARS-CoV-2 EC50, VeroE6 cells, RNA-qPCR, MOI 0.05, 72 h): 30 µM; antiviral activity in the presence of P-glycoprotein inhibitor CP-100356 (SARS-CoV-2): none of these compounds exhibited any significant antiviral activity |

| SMILES | IC50 (SARS-CoV-2 3CLpro [1]; [5]) [nM] | EC50 [2, 6] [µM] | further results |
| --- | --- | --- | --- |
| O=C(Oc1cncc(Cl)c1)c1ccccc1O [Compound 12a, 5-chloropyridin-3-yl 2-hydroxybenzoate] | 3470 |  |  |
| Cc1ccc(O)c(C(=O)Oc2cncc(Cl)c2)c1 [Compound 15a, 5-chloropyridin-3-yl 2-hydroxy-5-methylbenzoate] |  | 24 to 64 | antiviral activity in the presence of P-glycoprotein inhibitor CP-100356 (SARS-CoV-2): none of these compounds exhibited any significant antiviral activity |
| Cc1cccc(C(=O)Oc2c(C)cccc2C(=O)Oc2cncc(Cl)c2)c1O [Compound 13b, 5-chloropyridin-3-yl 2-((2-hydroxy-3-methylbenzoyl)oxy)-3-methylbenzoate] | 4900 | 24 |  |
| Cc1cccc(O)c1C(=O)Oc1cccc(C)c1C(=O)Oc1cncc(Cl)c1 [C00016] | 15400 | > 100 |  |
| Cc1cccc(C(=O)Oc2c(C)cccc2C(=O)Oc2cncc(Cl)c2)c1O [C00009] | 4900 |  | EC50 [2, 8]: 23.8 µM |
| COc1ccc2cc([C@@H](C)C(=O)Oc3cncc(Cl)c3)ccc2c1 [C00003] | 160 | > 100 |  |
| COc1ccc2cc([C@H](C)C(=O)Oc3cncc(Cl)c3)ccc2c1 [Compound 8a, 5-chloropyridin-3-yl (S)-2-(6-methoxynaphthalen-2-yl)propanoate] |  |  | IC50 (SARS-CoV-2 3CLpro [1]; [7]): 670 nM; mass shift of 3CL protease on acylation by inhibitor (SARS-CoV-2 3CLpro [4]): +212 Daltons |
| Cc1cccc(C(=O)Oc2cncc(Cl)c2)c1O [C00008] | 650 | > 100 |  |
| Cc1ccc(C(=O)Oc2cc(C)ccc2C(=O)Oc2cncc(Cl)c2)c(O)c1 [C00011] | 1400 | > 100 |  |
| Cc1cccc(C(=O)Oc2cncc(Cl)c2)c1O [Compound 13a, 5-chloropyridin-3-yl 2-hydroxy-3-methylbenzoate] |  |  | IC50 (SARS-CoV-2 3CLpro [1]; [7]): 650 nM |
| O=C(Oc1cncc(Cl)c1)c1c(O)cccc1F [C00017] | 108000 | > 100 |  |
| CC(=O)Nc1cccc(C(=O)Oc2cncc(Cl)c2)c1 [C00018] | 1110 | > 100 |  |
| CC(C)Cc1ccc(C(C)C(=O)Oc2cncc(Cl)c2)cc1 (stereo not shown) [Compound 10a, 5-chloropyridin-3-yl 2-(4-isobutylphenyl)propanoate] |  |  | IC50 (SARS-CoV-2 3CLpro [1]; [7]): 810 nM |
| Cc1ccc(C(=O)Oc2cncc(Cl)c2)c(O)c1 [Compound 14a, 5-chloropyridin-3-yl 2-hydroxy-4-methylbenzoate] |  |  | antiviral activity in the presence of P-glycoprotein inhibitor CP-100356 (SARS-CoV-2): none of these compounds exhibited any significant antiviral activity |
| Cc1ccc(O)c(C(=O)Oc2ccc(C)cc2C(=O)Oc2cncc(Cl)c2)c1 [C00013] | 740 |  | EC50 [2, 8]: 48.3 µM |
| CC(C)Cc1ccc(C(C)C(=O)Oc2cncc(Cl)c2)cc1 (stereo not shown) [C00004] | 810 | > 100 |  |
| CC(=O)Oc1ccccc1C(=O)Oc1cncc(Cl)c1 [C00001] | 360 |  |  |
| Cc1ccc(O)c(C(=O)Oc2cncc(Cl)c2)c1 [C00012] | 390 |  | EC50 [2, 8]: 46.3 µM |
